Data reported in PMC6698794, “Catalytic Knockdown of miR-21 by Artificial Ribonuclease: Biological Performance in Tumor Model” (Frontiers in Pharmacology, 2019).
Where “and” joins values, the source holds several entries; their conditions need not be identical. Equal entries are not always repeated. Values belong to the substance of their own block, whether it stands above or below them.

How the values were obtained:
miR-21 = test: Cleavage of 5′-[32P]-labeled miR-21 by miR-21-miRNase and/or RNase H in multiple turnover conditions; type: biochemical; settings: for Level of cleavage of miR-21 by miRNase alone: 5- or 10-fold excess of target; for Level of cleavage of miR-21 by miRNase alone / τ/2, half-life time of miR-21: miRNase 5 µM, 37°C
Description: Unlabeled miR-21 (10 µM, 25 µM, or 50 µM) and 10^5 cpm (Cherenkov’s counting) of [^32P]-miR-21 was incubated at 37°C with either miR-21-miRNase (5 µM) or RNase H (100 U/ml, plus 5 µM of either h-ODN or miR-21-miRNase) in buffer (20 mM Tris-HCl, pH 7.8, 40 mM KCl, 8 mM MgCl2, 1 mM DTT). Reactions were quenched by precipitation of RNA with 2% LiClO4 in acetone, and RNA cleavage products quantified in dried gels as described previously ([Patutina et al., 2017a]) using Molecular Imager FX and Quantity One software.
Figure 4 Cleavage of 5’-[^32P]-labeled miR-21 by miR-21-miRNase and/or RNase H. Autoradiographs of 18% polyacrylamide/8 M urea gel, showing the patterns of cleavage of miR-21 at its 2- (A), 5- (C), and 10-fold (E) molar excess over miR-21-miRNase or h-ODN. […] Duplexes formed by 5′-[^32P]-miR-21 (10, 25, and 50 µM) and h-ODN or miRNase (5 µM) were incubated at 37°C for 24–72 h. Lanes Im and T1: imidazole ladder and partial RNA digestion with RNase T1, respectively; “control”: RNA was incubated in the absence of oligonucleotide or conjugate and in the presence of RNase H (100 U/ml). Diagrams (B), (D), and (F) show time dependency of cleavage of miR-21 by miR-21-miRNase alone, by a synergetic action of miR-21-miRNase and RNase H, or by RNase H (100 U/ml) alone when miR-21 was in a complex with h-ODN at 2-, 5- and 10-fold molar excess of miR-21 over miR-21-miRNase or h-ODN, respectively. (G) Positions of miR-21 cleavage induced by miR-21-miRNase (red arrows), RNase H in the duplex with h-ODN (black arrows), and by combination of miR-21-miRNase and RNase H. (H) The hypothetical representation of miR-21 cleavage by a combination of miRNase and RNase H.

RLS40 lymphosarcoma [1] = test: Hepatic index of mice implanted with treated RLS40 cells; type: in vivo; settings: cells treated with 1 µM; (liver weight/mouse weight) × 100%; 5.0% for healthy CBA mice; Mean ± SE
Description: (§1) RLS40 ascites were taken from CBA mice intraperitoneally injected with tumor cells (2 × 10^6 in 0.2 ml buffered saline) into their abdominal cavities. RLS40 cells, isolated from ascites fluid by filtration through LSM were divided into seven portions: 1) untreated cells; 2) the cells incubated with Lipofectamine; the cells transfected with 1 µM of 3) h-ODN, 4) 2′-OMe, 5) Inh, 6) miR-21-miRNase, or 7) luc-POC each. After 4 h of transfection, cell suspensions (0.1 ml, 2 × 10^6 cells) were intramuscularly inoculated into the right lower limb of CBA mice for solid tumor development. As soon as tumors began to be palpable, the tumor volumes were measured every 2–3 days using calipers. Tumor volumes were calculated as V = (π/6 × length × width × height). Hepatic index was estimated as (liver weight/mouse weight) × 100% and as 5.0% for healthy CBA mice. Tumor doubling time (DT) was estimated as DT = (t − t0) × ln 2/(ln V − ln V0), where (t − t0) indicates the length of time between two measurements of tumor size and V0 and V denote the tumor volume at two points of the measurement ([Ozono et al., 2004]).
Supplementary Table 2. Hepatic indexes of mice implanted with RLS40 treated with antisense
oligonucleotides, control luc-POC and miR-21-miRNase
Type of treatment Hepatic index, %* p-value (vs control)
* – Mean ± SE; s.i. – statistically insignificant
Hepatic index was estimated as (liver weight/mouse weight) × 100% and as 5.0% for healthy CBA
The MDR status of RLS40 may add to the burden on the liver, when this type of tumor
metastasizes into the liver (Sen’kova et al., 2012). Ex vivo treatment of RLS40 cells by
oligonucleotides and miRNase avoids the toxic effect of antisense oligonucleotides, their conjugates
and transfection reagents directly on the tumor-bearing animal. This may allow consideration of
whether the decrease of migration activity of tumor cells translated into reduced metastatic burden of
RLS40 on the liver. Treatment of the cells seeding the tumor may not reduce migration and […]

RLS40 lymphosarcoma [2] = test: Tumor transplantation assay: RLS40 cells treated ex vivo, then inoculated intramuscularly; type: in vivo, CBA mice; settings: for Tumor doubling time, DT: DT = (t − t0) × ln 2/(ln V − ln V0)
Description: as §1
Figure 3 Antitumor effect of miR-21-specific miRNase. (A) Retardation of RLS40 growth in vivo after treatment of RLS40 cells with antisense oligonucleotides, control conjugate (luc-POC), or miR-21-miRNase. (B) Tumor volume on day 19 after RLS40 transplantation. Mice were injected with RLS40 cells either without any treatment (w/t) or treated with Lipofectamine (LF), commercial miR-21 inhibitor at concentration 0.1 µM (Inh 0.1, recommended) and 1 µM (Inh 1, in accordance to concentration of miRNase used in the study), control conjugate (luc-POC, 1 µM), hairpin 2′OMe oligonucleotide (2′-OMe, 1 µM), hairpin antisense oligonucleotide (h-ODN, 1 µM) or miR-21-specific miRNase (miR-21-miRNase, 1 µM). Data were statistically analyzed using two-way ANOVA with post hoc Tukey test. Data are presented as mean ± s.e. p-value indicates a statistically reliable difference. (C) Doubling time of RLS40 tumors after treatment with oligonucleotides and conjugates. TEXT PRINTED IN THE PICTURE: (C) untreated: DT, days: 2,45±0,49 | (C) LF: DT, days: 2,48±0,35 | (C) Inh 0.1: DT, days: 2,56±0,59 | (C) Inh 1: DT, days: 13,90±0,46 | (C) 2’-OMe: DT, days: 3,17±1,45 | (C) luc-POC: DT, days: 2,40±0,45 | (C) h-ODN: DT, days: 3,00±1,83 | (C) miR-21-miRNase: DT, days: 12,77±0,34

[3] = cells treated with 1 µM before transplantation

Factor by which RNase H elevated cleavage of miR-21 (from τ/2) (miR-21; 2-fold excess of miR-21): 14.9 times
Factor by which RNase H elevated cleavage of miR-21 (from τ/2) (miR-21; 5-fold excess of miR-21): 3.0 times
Factor by which RNase H elevated cleavage of miR-21 (from τ/2) (miR-21; 10-fold excess of miR-21): 2.4 times
Incubation time to complete (∼100%) RNA degradation (miR-21; miR-21-miRNase 5 µM with RNase H 100 U/ml, 2-fold excess of miR-21): 8 h
Incubation time to complete RNA degradation (miR-21; miR-21-miRNase 5 µM with RNase H 100 U/ml, 5-fold excess of miR-21): 24 h
Incubation time to complete RNA degradation (miR-21; miR-21-miRNase 5 µM with RNase H 100 U/ml, 10-fold excess of miR-21): ≤ 48 h
Level of cleavage of miR-21 by miRNase alone (miR-21; over 24 h, irrespective of 2-): 65–68%
Level of cleavage of miR-21 by miRNase alone (miR-21; over 72 h, 2-): 90%
τ/2, half-life time of miR-21 (miR-21; with RNase H 100 U/ml, miR-21 10 µM (2-fold RNA excess), pH 7.8): 0.7 ± 0.2 h
τ/2, half-life time of miR-21 (miR-21; with RNase H 100 U/ml, miR-21 25 µM (5-fold RNA excess), pH 7.8): 5.4 ± 0.4 h
τ/2, half-life time of miR-21 (miR-21; with RNase H 100 U/ml, miR-21 50 µM (10-fold RNA excess), pH 7.8): 4.7 ± 0.4 h
τ/2, half-life time of miR-21 (miR-21; without RNase H, miR-21 10 µM (2-fold RNA excess), Tris-HCl pH 7.8, 40 mM KCl, 8 mM MgCl2, 1 mM DTT, time for 50% cleavage): 10.4 ± 0.5 h
τ/2, half-life time of miR-21 (miR-21; without RNase H, miR-21 25 µM (5-fold RNA excess), pH 7.8): 16.2 ± 1.5 h
τ/2, half-life time of miR-21 (miR-21; without RNase H, miR-21 50 µM (10-fold RNA excess), pH 7.8): 11.04 ± 0.8 h
Substance: acetyl-[(LeuArg)2Gly]2-aminohexyl-AGTCTGATAAGCTACAAGTCAGCGAAAGCTGACTTG [miR-21-miRNase, peptide acetyl-[(LeuArg)2Gly]2 conjugated through aminohexyl linker to 5′-end of miR-21-targeted hairpin oligodeoxyribonucleotide]
Factor by which RNase H enhanced the catalytic turnover (miR-21; 2-fold excess of miR-21): 15.6 times
Factor by which RNase H enhanced the catalytic turnover (miR-21; 5-fold excess of miR-21): 7.0 times
Factor by which RNase H enhanced the catalytic turnover (miR-21; 10-fold excess of miR-21): 4.6 times
Hepatic index (RLS40 lymphosarcoma [1]): 5.1±0.16%
Increase of tumor doubling time over untreated control (w/t) (RLS40 lymphosarcoma [2]; [3]): > 5 fold
Tumor doubling time, DT (RLS40 lymphosarcoma [2]; [3]): 12,77±0,34 days and 12.77 days

Substance: h-ODN: miR-21-targeted hairpin deoxyribooligonucleotide AGTCTGATAAGCTACAAGTCAGCGAAAGCTGACTTG, unconjugated with the peptide (DNA, backbone and methylation of C not given here; hairpin at 3' end, unconjugated)
Total extent of miR-21 cleavage in heteroduplex with h-ODN by RNase H alone (miR-21; RNase H 100 U/ml, h-ODN 5 µM, 2-fold excess of miR-21, plateau by 30 min): 45%
Extent of miR-21 cleavage in heteroduplex with h-ODN by RNase H alone (miR-21; RNase H 100 U/ml, h-ODN 5 µM, 5-fold excess of miR-21): about 10%
Extent of miR-21 cleavage in heteroduplex with h-ODN by RNase H alone (miR-21; RNase H 100 U/ml, h-ODN 5 µM, 10-fold excess of miR-21): ~5%
Hepatic index (RLS40 lymphosarcoma [1]): 5.23±0.17%
Retardation of tumor growth, mean tumor volume times less than in the control group (RLS40 lymphosarcoma [2]; cells transfected once with 1 µM for 4 h, 2 × 10^6 cells i.m. into CBA mice, day 19): about 2 fold
Tumor doubling time against w/t (in words) (RLS40 lymphosarcoma [2]; [3]): did not show a statistically significant difference
Tumor doubling time, DT (RLS40 lymphosarcoma [2]; [3]): 3,00±1,83 days
